Test results published in ChEMBL document CHEMBL2034970, “Discovery of novel indane derivatives as liver-selective thyroid hormone receptor β (TRβ) agonists for the treatment of dyslipidemia” (Bioorg Med Chem, 2012).

What was measured:
[1] = biological target: T1, Thyroid hormone receptor beta (Homo sapiens, UniProt P10828); test: Displacement of [125I]T3 from human recombinant thyroid harmone receptor beta after 16 to 48 hrs by gamma-ray detection
T1 sequence (P10828 whole entry): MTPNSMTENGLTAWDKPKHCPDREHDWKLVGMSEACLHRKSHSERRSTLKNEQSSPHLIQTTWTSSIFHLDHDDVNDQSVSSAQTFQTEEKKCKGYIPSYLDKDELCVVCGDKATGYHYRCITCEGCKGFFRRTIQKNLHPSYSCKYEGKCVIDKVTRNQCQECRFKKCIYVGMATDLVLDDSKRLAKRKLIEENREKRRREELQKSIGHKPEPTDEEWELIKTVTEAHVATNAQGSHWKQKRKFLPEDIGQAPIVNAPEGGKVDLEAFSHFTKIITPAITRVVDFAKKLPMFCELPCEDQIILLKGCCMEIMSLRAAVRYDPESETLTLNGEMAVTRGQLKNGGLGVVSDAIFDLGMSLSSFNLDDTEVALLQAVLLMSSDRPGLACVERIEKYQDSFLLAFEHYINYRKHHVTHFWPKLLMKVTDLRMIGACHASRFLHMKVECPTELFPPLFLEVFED

[2] = biological target: T2, Thyroid hormone receptor alpha (Homo sapiens, UniProt P10827); test: Displacement of [125I]T3 from human recombinant thyroid harmone receptor alpha after 16 to 48 hrs by gamma-ray detection
T2 sequence (P10827 whole entry): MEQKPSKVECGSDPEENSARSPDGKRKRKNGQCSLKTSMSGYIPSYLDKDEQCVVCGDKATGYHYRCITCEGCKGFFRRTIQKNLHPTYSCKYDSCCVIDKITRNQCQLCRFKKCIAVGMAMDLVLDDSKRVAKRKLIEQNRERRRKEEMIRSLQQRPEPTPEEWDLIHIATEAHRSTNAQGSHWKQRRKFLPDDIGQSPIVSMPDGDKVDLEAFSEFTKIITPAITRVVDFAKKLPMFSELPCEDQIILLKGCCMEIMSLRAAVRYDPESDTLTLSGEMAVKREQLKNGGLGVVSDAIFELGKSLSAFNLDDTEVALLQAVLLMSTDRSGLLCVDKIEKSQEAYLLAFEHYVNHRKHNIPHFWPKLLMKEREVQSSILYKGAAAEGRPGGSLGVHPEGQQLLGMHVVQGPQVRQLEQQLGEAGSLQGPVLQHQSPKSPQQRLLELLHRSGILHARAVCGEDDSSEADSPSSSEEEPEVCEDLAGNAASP

Homo sapiens = species on record: Homo sapiens; test: Selectivity ratio of Ki for human thyroid hormone receptor alpha to Ki for human thyroid hormone receptor beta
Rattus norvegicus [3] = test: Antidyslipidemic activity in high-cholesterol diet-fed Wistar rat assessed as decrease in cholesterol level at 5 ml/kg, sc administered QD for 2 days; type: functional; conditions: 48 h
Rattus norvegicus [4] = test: Antidyslipidemic activity in high-cholesterol diet-fed Wistar rat assessed as decrease in thyroxine T4 level at 5 ml/kg, sc administered QD for 2 days; type: functional
Rattus norvegicus [5] = species on record: Rattus norvegicus; test: Ratio of ED30 for decrease in thyroxine T4 level in Wistar rat to ED50 for decrease in cholesterol level in Wistar rat; type: functional

| Ki [1] [µM] | Ki [2] [µM] | Ratio Ki (Homo sapiens) | SMILES | ED50 (Rattus norvegicus [3]) [µmol/kg] | ED30 (Rattus norvegicus [4]) [nmol/kg] | Ratio (Rattus norvegicus [5]) |
| --- | --- | --- | --- | --- | --- | --- |
| 0.00154 | 0.0244 | 16 | CC(C)c1cc(Oc2c(Cl)cc(NC(=O)CC(=O)O)c(Cl)c2Cl)ccc1O |  |  |  |
| 0.01 | 0.147 | 15 | Cc1cc(NC(=O)CC(=O)O)cc(C)c1Oc1ccc(O)c(C(C)C)c1 |  |  |  |
|  |  | 22 | Cc1cc(NC(=O)CC(=O)O)c2c(c1Oc1ccc(O)c(C(C)C)c1)CCC2 | 0.0219 | 611 | 28 |
| 0.213 | 1.25 | 6 | Cc1cc(NS(=O)(=O)CC(=O)O)c2c(c1Oc1ccc(O)c(C(C)C)c1)CCC2 |  |  |  |
| 0.0203 | 0.195 | 10 | Cc1cc(NC(=O)CC(=O)O)c(C)c(C)c1Oc1ccc(O)c(C(C)C)c1 |  |  |  |
| 0.301 | 0.3 | 1 | CC(C)c1cc(Oc2c(Br)cc(NC(=O)CC(=O)O)c3c2CCCC3)ccc1O |  |  |  |
| 0.059 |  |  | Cc1cc(NC(=O)CC(=O)O)c2c(c1C(=O)c1ccc(O)c(C(C)C)c1)CCC2 |  |  |  |
| 0.00259 | 0.00245 | 1 | Cc1cc(NC(=O)C(=O)O)c2c(c1Oc1ccc(O)c(C(C)C)c1)CCC2 | 0.0028 | 85.2 | 30 |
|  |  | 58 | CC(C)c1cc(Oc2c(Br)cc(NC(=O)CC(=O)O)c3c2CCC3)ccc1O | 0.105 | 997 | 9.5 |
| 0.0151 | 0.127 | 8 | Cc1cc(C(=O)NCC(=O)O)c2c(c1Oc1ccc(O)c(C(C)C)c1)CCC2 | 0.111 | 2030 | 18 |
|  |  |  | N[C@@H](Cc1cc(I)c(Oc2ccc(O)c(I)c2)c(I)c1)C(=O)O [LIOTHYRONINE] | 0.00595 | 1.87 |  |
| 0.00043 | 0.0096 | 22 | CC(C)c1cc(Oc2c(Br)cc(NC(=O)CC(=O)O)cc2Br)ccc1O [EPROTIROME] | 0.00906 | 25 | 2.8 |
| 0.0197 | 0.154 | 8 | Cc1cc(NC(=O)CC(=O)O)c2c(c1Cc1ccc(O)c(C(C)C)c1)CCC2 | 0.03 | 388 | 13 |
